According to ChEMBL document CHEMBL1125971, “A concise synthesis of 12-(3'-hydroxy-n-propyl)-deoxoartemisinin” (Bioorg Med Chem Lett, 1991):
Converted amounts (≈) assume the structure as drawn.

System: Plasmodium falciparum
Test: In vitro antimalarial activity against Plasmodium falciparum
Assay type: functional, organism-based

| Compound | IC50 |
| --- | --- |
| C[C@@H]1CCC2[C@@H](C)CCO[C@@H]3O[C@]4(C)CCC1C23OO4 (some centres undefined) | 19 ng/mL (≈ 67.4 nM) |
| C[C@@H]1CCC2[C@@H](C)[C@H](CCCO)O[C@@H]3O[C@]4(C)CCC1C23OO4 (some centres undefined) | 0.23 ng/mL (≈ 0.705 nM) |
| C[C@@H]1CCC2[C@@H](C)C(=O)O[C@@H]3O[C@]4(C)CCC1C23OO4 (some centres undefined) | 1.21 ng/mL (≈ 4.29 nM) |
| C[C@@H]1CCC2[C@@H](C)CO[C@@H]3O[C@]4(C)CCC1C23OO4 (some centres undefined) | 0.15 ng/mL (≈ 0.559 nM) |
